Measured values taken from ChEMBL document CHEMBL1201862, “PubChem BioAssay data set” (2004).
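Compound exposure: 48 hours, 5 concentrations, 96-well plates. GI50 = concentration required for 50% inhibition of growth.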 The source made the active and inactive calls. No stated cut-off is given here; in the data, active = GI50 up to about 1.1 µM and inactive = higher.

Legend:
Assay in all cases: NCI-60 cell line screen, 48 h
Hs-578T = system: Hs-578T
BT-549 = system: BT-549
LXFL 529 = system: LXFL 529
DMS-273 = system: DMS-273
SNB-78 = system: SNB-78
DMS-114 = system: DMS-114
DLD-1 = system: DLD-1
XF498 = system: XF498

Structure (SMILES) | GI50 (Hs-578T) | GI50 (BT-549) | other results
COc1ccc(C)cc1N1C(=O)C2ON(Cc3ccc(CC(N)=O)cc3)C(c3c4ccccc4c(Cl)c4ccccc34)C2C1=O (centres undefined) | 41.9 µM (inactive) | 24.1 µM (inactive) | –
C=CC/N=C1/N=C(CC(=O)OCC)CS1 | – | – | GI50 (LXFL 529): > 100 µM (inactive); GI50 (DMS-273): > 100 µM (inactive); GI50 (SNB-78): > 100 µM (inactive); GI50 (DMS-114): > 100 µM (inactive); GI50 (DLD-1): > 100 µM (inactive); GI50 (XF498): > 100 µM (inactive)
O=c1c2ccccc2n2n1CC(O)C2 (centres undefined) | – | – | GI50 (DMS-273): > 100 µM (inactive); GI50 (SNB-78): 9.35 µM (inactive); GI50 (DLD-1): > 100 µM (inactive); GI50 (XF498): > 100 µM (inactive)
COC(=O)c1ccc(/C=N/c2cc(C)nn2-c2ccccc2)cc1 | 91.2 µM (inactive) | 34.9 µM (inactive) | –
Cc1cccc(/C=N/NC(=S)NC2CCCCC2)n1 | 31.1 µM (inactive) | 31 µM (inactive) | –
CC(=O)N(C)c1ccc2ncccc2c1[N+](=O)[O-] | – | – | GI50 (LXFL 529): > 100 µM (inactive); GI50 (DMS-273): > 100 µM (inactive); GI50 (SNB-78): > 100 µM (inactive); GI50 (DMS-114): > 100 µM (inactive); GI50 (DLD-1): > 100 µM (inactive); GI50 (XF498): > 100 µM (inactive)
CC(=O)OCCn1cnc2c(NCC=C(C)C)ncnc21 | > 100 µM (inactive) | – | –
COc1ccc(C#CCC(OC2OC(CO)C(O)C(O)C2O)C(O)c2ccc(OC)c(OC)c2)cc1OC (centres undefined) | – | – | GI50 (LXFL 529): > 100 µM (inactive); GI50 (DMS-273): > 100 µM (inactive); GI50 (SNB-78): > 100 µM (inactive); GI50 (DLD-1): > 100 µM (inactive)
Nc1nc(Cl)c(N)c(NCC2(CO)CCCC2)n1 | > 100 µM (inactive) | 50.5 µM (inactive) | –
CC(C)[C@H]1NC(=O)[C@H]2N=C(S[C@H]2C)[C@@H]2CCCN2C(=O)[C@H](Cc2ccccc2)NC(=O)[C@@H]2CSC(=N2)[C@@H](Cc2ccccc2)NC(=O)[C@@H]2CSC1=N2 | 15.1 µM (inactive) | > 50 µM (inactive) | –
C=CCn1c(=O)ccn(/C(=C/C(=O)OCC)C(=O)OCC)c1=O | 22.5 µM (inactive) | 15.7 µM (inactive) | –
C/C(=N\n1c(Cc2ccccc2)n[nH]c1=O)c1ccc([N+](=O)[O-])cc1 | 64.4 µM (inactive) | > 100 µM (inactive) | –
CC(Oc1ccccc1Cl)C(=O)NN1C(=O)CSC1c1ccccc1 (centres undefined) | > 100 µM (inactive) | > 100 µM (inactive) | –
Cc1ccc(C)c(NC2=NC(=O)C(CC(=O)Nc3ccc(Cl)cc3Cl)S2)c1 (centres undefined) | – | – | GI50 (LXFL 529): 58.7 µM (inactive); GI50 (DMS-273): 98.6 µM (inactive); GI50 (DMS-114): 42.6 µM (inactive); GI50 (DLD-1): > 100 µM (inactive); GI50 (XF498): 32.7 µM (inactive)
Cc1ccc(S(=O)(=O)NN=C2C(C)(C)CC2(C)C)cc1 | > 100 µM (inactive) | – | –
O=C(CC(O)(C(F)(F)F)C(F)(F)F)C(c1ccccc1)C(O)(C(F)(F)F)C(F)(F)F (centres undefined) | 4.15 µM (inactive) | 24 µM (inactive) | –
C=C(CBr)CCCOCc1ccccc1 | – | 15 µM (inactive) | –

Structure (SMILES) | GI50 (Hs-578T) | GI50 (BT-549) | other results
N#CC1CCCC2SC(F)(F)C(F)(F)C12 (centres undefined) | > 100 µM (inactive) | > 100 µM (inactive) | –
O=S(=O)(c1ccccc1)n1c2ccc(Br)cc2c2nc3ccccc3nc21 | > 100 µM (inactive) | – | –
CC(=O)NNc1nc(C)c(C(/C=C/c2ccc([N+](=O)[O-])cc2)=N/NC(N)=S)s1 | > 100 µM (inactive) | > 100 µM (inactive) | –
CCOC(=O)c1nc2ccc(Cl)cc2c2c1Cc1ccccc1-2 | – | – | GI50 (LXFL 529): > 100 µM (inactive); GI50 (DMS-273): > 100 µM (inactive); GI50 (SNB-78): > 100 µM (inactive); GI50 (DLD-1): > 100 µM (inactive); GI50 (XF498): > 100 µM (inactive)
CCOC(=O)/C1=C(\C)N(c2ccc(C)cc2)C(=O)c2ccccc2C(=O)c2c(O)ccc(O)c21 | 29.2 µM (inactive) | 27.7 µM (inactive) | –
Cc1cn(CCCCC2=NCCCN2)c(=O)[nH]c1=O | > 34.4 µM (inactive) | – | –
O=S(=O)(O)c1ccc2c(/N=N/c3ccccc3Cl)c(O)ccc2c1 | > 100 µM (inactive) | > 100 µM (inactive) | –
COc1ccc(-n2nnc(C(N)=O)c2O)cc1 | > 100 µM (inactive) | > 100 µM (inactive) | –
C=C1[C@H](OC(=O)C(C)C)[C@]23CC4(O)[C@@H]5[C@@]6(C)CCC[C@]57C([C@@H]2C[C@@]1(O)[C@H](O)[C@@H]73)N4C6 | > 100 µM (inactive) | > 100 µM (inactive) | –
CC(C)=CCC/C(C)=C/C=C/C(C)=C/C=C/C(C)=C/C=C/C=C(C)/C=C/C=C(C)/C=C/[C@H]1C(C(C)(C)O)CC[C@]1(C)O (some centres undefined) | 22.1 µM (inactive) | – | –
O=C(/C=C/c1ccc(O)c(O)c1)OCCOC(=O)/C=C/c1ccc(O)c(O)c1 | 39.4 µM (inactive) | 34.4 µM (inactive) | –
Cn1c(=O)nc2n(-c3cc(Cl)ccc3Cl)c3ccccc3nc-2c1=O | – | – | GI50 (LXFL 529): 13.8 µM (inactive); GI50 (DMS-273): 3.67 µM (inactive); GI50 (SNB-78): 13.5 µM (inactive); GI50 (DMS-114): 2.11 µM (inactive); GI50 (DLD-1): 1.53 µM (inactive); GI50 (XF498): 7.76 µM (inactive)
CC(=O)OC(C)(C)[C@H]1O[C@]23O[C@]1(C)C[C@@H](C)[C@@H]2[C@@]1(C)CC[C@@]24C[C@@]25CC[C@H](O[C@@H]2OC[C@@H](O)[C@H](O)[C@H]2O)C(C)(C)[C@@H]5CC[C@H]4[C@]1(C)[C@H]3O | 17.4 µM (inactive) | 16.3 µM (inactive) | –
O=[N+]([O-])c1ccc(/N=N/N2CCCC2)cc1 | > 100 µM (inactive) | > 100 µM (inactive) | –
CC1(C)CC[C@]2(C(=O)O)CC[C@]3(C)[C@H](C(=O)C=C4[C@@]5(C)C=C(C#N)C(=O)C(C)(C)[C@@H]5CC[C@]43C)[C@@H]2C1 [BARDOXOLONE] | 0.671 µM (active) | 0.731 µM (active) | –
C[C@@]12CCCc3coc(c31)C(=O)c1cc3c(cc12)C(=O)C=CC3=O [XESTOQUINONE] | – | – | GI50 (LXFL 529): 15 µM (inactive); GI50 (DMS-114): 18.5 µM (inactive); GI50 (DLD-1): 2.54 µM (inactive); GI50 (XF498): 16.1 µM (inactive)
